US20220259593A1, “CONTROL OF MAMMALIAN GENE DOSAGE USING CRISPR” (The Regents of the University of California, priority 2019, published 2022)

Test system: K562 CRISPRi cells
Experiment: Perturb-seq pooled growth measurement (sgRNA counts, growth phenotype γ, relative activity)
Format: cell-based, human
Conditions: sequencing read counts; for Perturb-seq pooled growth sgRNA counts, d5: 5 days of growth (day seven after transduction); for Perturb-seq pooled growth sgRNA counts, d10: 10 days of growth (day twelve after transduction); for Perturb-seq pooled growth sgRNA counts, T0: T0 = day two after transduction
From the text: Finally, we sought to use intermediate-activity sgRNAs to explore relationships between expression levels of various genes and the resulting cellular phenotypes. To simultaneously measure gene expression levels and obtain rich phenotypes for a variety of sgRNA series, we used Perturb-seq, an experimental strategy that enables matched capture of the transcriptome and the identity of an expressed sgRNA for each individual cell in pools of cells (27, 31-33) (FIG. 12A). […] In addition to the single-cell transcriptomes, we measured bulk growth phenotypes conferred by sgRNAs in these cells.
To measure the growth rate defects conferred by each sgRNA for comparison with the transcriptional phenotypes, samples of 500,000 transduced cells were taken from the same transduced cell population used in the Perturb-seq experiment on days two, seven, and twelve after transduction. Genomic DNA was extracted using the Nucleospin Blood kit (Macherey-Nagel) and sgRNA amplicons were prepared as described previously and above (19), albeit with no genomic DNA digestion or gel purification, and sequenced on HiSeq 4000 as described above for the other screens. Growth phenotypes were calculated by comparing normalized sgRNA abundances at day seven and twelve to those at day two, as described above. […] Relative sgRNA activities measured at day seven (five days of growth) were used to assign sgRNA activities in further analysis.

COX11_+_53045977.23-P1P2_04: sgRNA targeting COX11, GGCTCTGGCGCCCTGGATGG, SEQ ID NO: 143 (listed as DNA, chemistry not fully specified)
Perturb-seq pooled growth sgRNA counts, d5: 8343 | Perturb-seq pooled growth sgRNA counts, d10: 5047 | Perturb-seq pooled growth sgRNA counts, T0: 5234

COX11_+_53045977.23-P1P2_05: sgRNA targeting COX11, GGCTCTGGCGTCTTGGATGG, SEQ ID NO: 144 (listed as DNA, chemistry not fully specified)
Perturb-seq pooled growth sgRNA counts, d5: 10766 | Perturb-seq pooled growth sgRNA counts, d10: 11496 | Perturb-seq pooled growth sgRNA counts, T0: 5205

COX11_+_53045977.23-P1P2_10: sgRNA targeting COX11, GGCTCTGGCGTCCCGGATGG, SEQ ID NO: 145 (listed as DNA, chemistry not fully specified)
Perturb-seq pooled growth sgRNA counts, d5: 8887 | Perturb-seq pooled growth sgRNA counts, d10: 11271 | Perturb-seq pooled growth sgRNA counts, T0: 5206

DBR1_+_137893744.23-P1P2_00: sgRNA targeting DBR1, GTTTGCAGGAGTCTACACCC, SEQ ID NO: 78 (listed as DNA, chemistry not fully specified)
Perturb-seq pooled growth sgRNA counts, d5: 9171 | Perturb-seq pooled growth sgRNA counts, d10: 3583 | Perturb-seq pooled growth sgRNA counts, T0: 13446

DBR1_+_137893744.23-P1P2_01: sgRNA targeting DBR1, GATTGCAGGAGTCTACACCC, SEQ ID NO: 79 (listed as DNA, chemistry not fully specified)
Perturb-seq pooled growth sgRNA counts, d5: 5512 | Perturb-seq pooled growth sgRNA counts, d10: 1824 | Perturb-seq pooled growth sgRNA counts, T0: 9446

DBR1_+_137893744.23-P1P2_05: sgRNA targeting DBR1, GTTTGCAGGAGTGTACACCC, SEQ ID NO: 81 (listed as DNA, chemistry not fully specified)
Perturb-seq pooled growth sgRNA counts, d5: 6705 | Perturb-seq pooled growth sgRNA counts, d10: 4748 | Perturb-seq pooled growth sgRNA counts, T0: 6569

DBR1_+_137893744.23-P1P2_07: sgRNA targeting DBR1, GTTTGCAGGGGTCTACACCC, SEQ ID NO: 80 (listed as DNA, chemistry not fully specified)
Perturb-seq pooled growth sgRNA counts, d5: 4894 | Perturb-seq pooled growth sgRNA counts, d10: 2550 | Perturb-seq pooled growth sgRNA counts, T0: 8500

DBR1_+_137893744.23-P1P2_08: sgRNA targeting DBR1, GTTTGCAGTAGTCTACACCC, SEQ ID NO: 82 (listed as DNA, chemistry not fully specified)
Perturb-seq pooled growth sgRNA counts, d5: 11651 | Perturb-seq pooled growth sgRNA counts, d10: 15989 | Perturb-seq pooled growth sgRNA counts, T0: 5326

DUT_+_48624411.23-P1P2_00: sgRNA targeting DUT, GCGAGCGAGGAGACCACCGG, SEQ ID NO: 110 (listed as DNA, chemistry not fully specified)
Perturb-seq pooled growth sgRNA counts, d5: 3755 | Perturb-seq pooled growth sgRNA counts, d10: 1570 | Perturb-seq pooled growth sgRNA counts, T0: 14025

DUT_+_48624411.23-P1P2_01: sgRNA targeting DUT, GCCAGCGAGGAGACCACCGG, SEQ ID NO: 111 (listed as DNA, chemistry not fully specified)
Perturb-seq pooled growth sgRNA counts, d5: 6764 | Perturb-seq pooled growth sgRNA counts, d10: 3576 | Perturb-seq pooled growth sgRNA counts, T0: 25227

DUT_+_48624411.23-P1P2_07: sgRNA targeting DUT, GCGAGCGAGGAGCCCACCGG, SEQ ID NO: 113 (listed as DNA, chemistry not fully specified)
Perturb-seq pooled growth sgRNA counts, d5: 1509 | Perturb-seq pooled growth sgRNA counts, d10: 1157 | Perturb-seq pooled growth sgRNA counts, T0: 4601

DUT_+_48624411.23-P1P2_08: sgRNA targeting DUT, GCGAGCGAGGAGGCCACCGG, SEQ ID NO: 112 (listed as DNA, chemistry not fully specified)
Perturb-seq pooled growth sgRNA counts, d5: 4351 | Perturb-seq pooled growth sgRNA counts, d10: 2392 | Perturb-seq pooled growth sgRNA counts, T0: 15356

DUT_+_48624411.23-P1P2_10: sgRNA targeting DUT, GCGAGCGAGGAGACCAACGG, SEQ ID NO: 114 (listed as DNA, chemistry not fully specified)
Perturb-seq pooled growth sgRNA counts, d5: 5403 | Perturb-seq pooled growth sgRNA counts, d10: 4466 | Perturb-seq pooled growth sgRNA counts, T0: 6538

EIF2S1_−_67827080.23-P1P2_00: sgRNA targeting EIF2S1, GAGCGAAGCGCACGCTGAGG, SEQ ID NO: 136 (listed as DNA, chemistry not fully specified)
Perturb-seq pooled growth sgRNA counts, d5: 1123 | Perturb-seq pooled growth sgRNA counts, d10: 1318 | Perturb-seq pooled growth sgRNA counts, T0: 5718

EIF2S1_−_67827080.23-P1P2_01: sgRNA targeting EIF2S1, GAGCGAAACGCACGCTGAGG, SEQ ID NO: 139 (listed as DNA, chemistry not fully specified)
Perturb-seq pooled growth sgRNA counts, d5: 3799 | Perturb-seq pooled growth sgRNA counts, d10: 4065 | Perturb-seq pooled growth sgRNA counts, T0: 5433

EIF2S1_−_67827080.23-P1P2_02: sgRNA targeting EIF2S1, GAGCGCAGCGCACGCTGAGG, SEQ ID NO: 138 (listed as DNA, chemistry not fully specified)
Perturb-seq pooled growth sgRNA counts, d5: 2570 | Perturb-seq pooled growth sgRNA counts, d10: 2582 | Perturb-seq pooled growth sgRNA counts, T0: 8035

EIF2S1_−_67827080.23-P1P2_06: sgRNA targeting EIF2S1, GAGCGAAGCGCGCGCTGAGG, SEQ ID NO: 137 (listed as DNA, chemistry not fully specified)
Perturb-seq pooled growth sgRNA counts, d5: 1718 | Perturb-seq pooled growth sgRNA counts, d10: 2436 | Perturb-seq pooled growth sgRNA counts, T0: 4549

EIF2S1_−_67827080.23-P1P2_07: sgRNA targeting EIF2S1, GAGCGAAGCGCTCGCTGAGG, SEQ ID NO: 140 (listed as DNA, chemistry not fully specified)
Perturb-seq pooled growth sgRNA counts, d5: 13281 | Perturb-seq pooled growth sgRNA counts, d10: 22309 | Perturb-seq pooled growth sgRNA counts, T0: 6931

GATA1_−_48645022.23-P1P2_00: sgRNA targeting GATA1, GTGAGCTTGCCACATCCCCA, SEQ ID NO: 119 (listed as DNA, chemistry not fully specified)
Perturb-seq pooled growth sgRNA counts, d5: 955 | Perturb-seq pooled growth sgRNA counts, d10: 757 | Perturb-seq pooled growth sgRNA counts, T0: 5712

GATA1_−_48645022.23-P1P2_03: sgRNA targeting GATA1, GTGCGCTTGCCACATCCCCA, SEQ ID NO: 120 (listed as DNA, chemistry not fully specified)
Perturb-seq pooled growth sgRNA counts, d5: 1927 | Perturb-seq pooled growth sgRNA counts, d10: 1534 | Perturb-seq pooled growth sgRNA counts, T0: 12276

GATA1_−_48645022.23-P1P2_04: sgRNA targeting GATA1, GTGAGCTTACCACATCCCCA, SEQ ID NO: 121 (listed as DNA, chemistry not fully specified)
Perturb-seq pooled growth sgRNA counts, d5: 860 | Perturb-seq pooled growth sgRNA counts, d10: 668 | Perturb-seq pooled growth sgRNA counts, T0: 4714

GATA1_−_48645022.23-P1P2_06: sgRNA targeting GATA1, GTGAGCTTGCGACATCCCCA, SEQ ID NO: 123 (listed as DNA, chemistry not fully specified)
Perturb-seq pooled growth sgRNA counts, d5: 5580 | Perturb-seq pooled growth sgRNA counts, d10: 5489 | Perturb-seq pooled growth sgRNA counts, T0: 9440

GATA1_−_48645022.23-P1P2_08: sgRNA targeting GATA1, GTGAGCTTTCCACATCCCCA, SEQ ID NO: 122 (listed as DNA, chemistry not fully specified)
Perturb-seq pooled growth sgRNA counts, d5: 2043 | Perturb-seq pooled growth sgRNA counts, d10: 1873 | Perturb-seq pooled growth sgRNA counts, T0: 7028

GATA1_−_48645022.23-P1P2_12: sgRNA targeting GATA1, GTGAGCTTGCCACATCCGCA, SEQ ID NO: 124 (listed as DNA, chemistry not fully specified)
Perturb-seq pooled growth sgRNA counts, d5: 7289 | Perturb-seq pooled growth sgRNA counts, d10: 11548 | Perturb-seq pooled growth sgRNA counts, T0: 4081

GINS1_−_25388381.23-P1P2_00: sgRNA targeting GINS1, GGACTAGAACGAAAGGAGTG, SEQ ID NO: 93 (listed as DNA, chemistry not fully specified)
Perturb-seq pooled growth sgRNA counts, d5: 547 | Perturb-seq pooled growth sgRNA counts, d10: 280 | Perturb-seq pooled growth sgRNA counts, T0: 3621
